Reference: ChEMBL document CHEMBL1125188, “Synthesis and evaluation of stilbene and dihydrostilbene derivatives as potential anticancer agents that inhibit tubulin polymerization” (J Med Chem, 1991)

Legend:
HT-29 = experiment: Cytotoxic concentration required to inhibit 50% cell growth in HT-29 colon adenocarcinoma cell lines; assay type: functional; conditions: Homo sapiens, read-out: ED50 (the source's name)
MLM = experiment: Cytotoxic concentration required to inhibit 50% cell growth in MLM melanoma cell lines; assay type: functional; conditions: Homo sapiens, read-out: ED50 (the source's name)
MCF7 = experiment: Cytotoxic concentration required to inhibit 50% cell growth in MCF-7 breast carcinoma cell lines; assay type: functional; conditions: Homo sapiens, read-out: ED50 (the source's name)
SK-MEL-5 = experiment: Cytotoxic concentration required to inhibit 50% cell growth in SKMEL-5 melanoma cell lines; assay type: functional; conditions: Homo sapiens, read-out: ED50 (the source's name)
A549 = experiment: Cytotoxic concentration required to inhibit 50% cell growth in A-549 lung carcinoma cell lines; assay type: functional; conditions: Homo sapiens, read-out: ED50 (the source's name)
Tubulin = Tubulin (Bos taurus, UniProt Q6B856+Q862L2+Q862F3); experiment: Ability to inhibit Tubulin polymerization in Bovine brain; assay type: functional, tissue-based

SMILES | EC50 (HT-29) [µM] | EC50 (MLM) [µM] | EC50 (MCF7) [µM] | EC50 (SK-MEL-5) [µM] | EC50 (A549) [µM] | IC50 (Tubulin) [µM]
COc1cc(CCc2ccc(N(C)C)cc2)cc(OC)c1OC | 0.077 | 0.12 | 0.064 | 0.059 | 0.083 | 29
COc1cccc(/C=C\c2cc(OC)c(OC)c(OC)c2)c1 | 0.09 | 1.4 | 0.14 | 0.06 | 0.13 | 8.8
COc1cc(/C=C\c2ccc(N(C)C)cc2)cc(OC)c1OC | 0.0081 | 0.0094 | 0.0058 | 0.00015 | 0.0041 | 3.4
COc1ccc(CNc2cc(OC)c(OC)c(OC)c2)cc1 | 2.24 | > 25 | 0.86 | 1.13 | 0.83 | > 50
COc1ccc(/C=C\c2cc(OC)c(OC)c(OC)c2)c(Cl)c1 | 0.066 | 0.14 | 0.046 | 0.017 | 0.051 | 3.5
COc1ccc(/C=C/c2ccccc2)cc1OC | > 25 | > 25 | > 25 | > 25 | > 25 | 
COc1cc(CCc2ccc(NC(C)=O)cc2)cc(OC)c1OC | > 25 | > 25 | > 25 | > 25 | > 25 | 
COc1ccc(/C=C\c2cc(OC)c(OC)c(OC)c2)cc1 | 2.7e-05 | 9.3e-05 |  |  | 2.2e-05 | 2.2
COc1cc(/C=C/c2ccc(O)cc2)cc(OC)c1OC | > 25 | 24.2 | 18.6 | 11.6 | > 25 | 
COc1ccccc1/C=C\c1cc(OC)c(OC)c(OC)c1 | 0.87 | 8.6 | 1.3 | 1.2 | 1.1 | 
COc1ccc(/C=C/c2cc(OC)c(OC)c(OC)c2)c(Cl)c1 | > 25 | > 25 | > 25 | > 25 | > 25 | 
COc1cc(/C=C/c2ccc(N)cc2)cc(OC)c1OC | > 25 | > 25 | > 25 | > 25 | > 25 | 
COc1ccc(CCc2ccccc2)cc1OC | > 25 | > 25 | > 25 | > 25 | > 25 | 
COc1cccc2c1C(=O)c1c(O)c3c(c(O)c1C2=O)C[C@@](O)(C(=O)CO)C[C@@H]3O[C@H]1C[C@H](N)[C@H](O)[C@H](C)O1 [DOXORUBICIN] | 0.055 | 0.13 | 0.031 | 0.032 | 0.029 | 
COc1cc(/C=C\c2cccnc2)cc(OC)c1OC | 9.8 | > 25 | 14.7 | 6 | 13.7 | 
COc1cccc(CCc2cc(OC)c(OC)c(OC)c2)c1 | 7.6 | > 25 | 12.4 | 9.2 | 11.7 | 
COc1cc(CCc2cccnc2)cc(OC)c1OC | > 25 | > 25 | > 25 | > 25 | 12.2 | 
COc1ccc(C(=O)Nc2cc(OC)cc(OC)c2)cc1 | > 25 | > 25 | > 25 | > 25 | > 25 | 
COc1cc(/C=C/c2ccccc2)cc(OC)c1OC | > 25 | > 25 | > 25 | > 25 | > 25 | 
COc1cc(/C=C\c2ccc([N+](=O)[O-])cc2)cc(OC)c1OC | > 25 | > 25 | > 25 | > 25 | > 25 | 
COc1ccc(NC(=O)c2cc(OC)c(OC)c(OC)c2)cc1 | 22.7 | > 25 | 12.2 | > 25 | 14.1 | 
